Laboratory results: patent US20260022094A1, “Compounds for the Treatment of Neurodegenerative Diseases” (Celgene Corporation, priority 2022, published 2026)

Target: T1, S1P5 receptors (Homo sapiens, UniProt Q9H228)
T1 construct: expressed in transfected cells; host or cells: CHO cells (membranes)
Assay: [35S]-GTPγS binding assay on CHO-S1P5 membranes (S1P5 agonism)
Assay type: biochemical
Conditions: membranes of CHO cells expressing recombinant S1P5; measure of S1P5 agonism
How it was run: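 Membranes from CHO cells expressing recombinant S1P5 in HEPES/MgCl2/NaCl/EDTA buffer, pH 7.4, with 0.1% fatty acid-free BSA, 30 μg/mL saponin, GDP and WGA SPA beads. Compound was preincubated with membranes for 30 min at RT, then [35S]-GTPγS was added for 40 min at RT. Bound label was counted by SPA, with S1P as control.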

T1 sequence (Q9H228 whole entry): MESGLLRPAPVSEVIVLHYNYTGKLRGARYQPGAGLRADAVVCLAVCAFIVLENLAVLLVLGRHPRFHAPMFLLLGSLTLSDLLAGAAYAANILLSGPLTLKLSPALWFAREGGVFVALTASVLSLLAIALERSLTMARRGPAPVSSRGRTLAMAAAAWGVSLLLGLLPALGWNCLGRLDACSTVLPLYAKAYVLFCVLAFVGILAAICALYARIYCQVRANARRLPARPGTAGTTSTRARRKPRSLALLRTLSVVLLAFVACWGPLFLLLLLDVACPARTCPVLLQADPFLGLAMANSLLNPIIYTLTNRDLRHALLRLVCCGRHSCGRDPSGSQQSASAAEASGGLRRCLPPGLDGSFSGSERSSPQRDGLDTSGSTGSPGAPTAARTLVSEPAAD

SMILES	EC50 [µM]
Cc1cc(C2CN(c3c(Cl)cccc3Cl)C2)c(C)cc1CN1CC(C)(O)C1 [Compound 56, 1-(4-(1-(2,6-dichlorophenyl)azetidin-3-yl)-2,5-dimethylbenzyl)-3-methylazetidin-3-ol]	0.01 to 0.1
Cc1cc(CN2CC(C)(O)C2)cc(C)c1C1CN(c2c(Cl)cccc2Cl)C1 [Compound 57, 1-(4-(1-(2,6-dichlorophenyl)azetidin-3-yl)-3,5-dimethylbenzyl)-3-methylazetidin-3-ol]	0.01 to 0.1
CC1(O)CN(Cc2ccc(C3CN(c4c(Cl)cccc4Cl)C3)nc2)C1 [Compound 58, 1-((6-(1-(2,6-dichlorophenyl)azetidin-3-yl)pyridin-3-yl)methyl)-3-methylazetidin-3-ol]	1 to 10
CC1(O)CN(Cc2ccc(C3CN(c4c(Cl)cccc4Cl)C3)cn2)C1 [Compound 59, 1-((5-(1-(2,6-dichlorophenyl)azetidin-3-yl)pyridin-2-yl)methyl)-3-methylazetidin-3-ol]	0.1 to 1
CC1(O)CN(Cc2ccc(C3CN(c4c(Cl)cccc4Cl)C3)c(F)c2)C1 [Compound 60, 1-(4-(1-(2,6-dichlorophenyl)azetidin-3-yl)-3-fluorobenzyl)-3-methylazetidin-3-ol]	0.1 to 1
CC1(O)CN(Cc2ccc(C3CN(c4c(Cl)cccc4Cl)C3)cc2F)C1 [Compound 61, 1-(4-(1-(2,6-dichlorophenyl)azetidin-3-yl)-2-fluorobenzyl)-3-methylazetidin-3-ol]	0.1 to 1
Cc1cc(N2CC(c3c(Cl)cccc3Cl)C2)c(C)cc1CN1CC(C)(O)C1 [Compound 62, 1-(4-(3-(2,6-dichlorophenyl)azetidin-1-yl)-2,5-dimethylbenzyl)-3-methylazetidin-3-ol]	0.001 to 0.01
Cc1cc(CN2CC(C)(O)C2)cc(C)c1N1CC(c2c(Cl)cccc2Cl)C1 [Compound 63, 1-(4-(3-(2,6-dichlorophenyl)azetidin-1-yl)-3,5-dimethylbenzyl)-3-methylazetidin-3-ol]	0.001 to 0.01
CC1(O)CN(Cc2ccc(N3CC(c4c(Cl)cccc4Cl)C3)nc2)C1 [Compound 64, 1-((6-(3-(2,6-dichlorophenyl)azetidin-1-yl)pyridin-3-yl)methyl)-3-methylazetidin-3-ol]	0.1 to 1
CC1(O)CN(Cc2ccc(N3CC(c4c(Cl)cccc4Cl)C3)cc2F)C1 [Compound 65, 1-(4-(3-(2,6-dichlorophenyl)azetidin-1-yl)-2-fluorobenzyl)-3-methylazetidin-3-ol]	0.01 to 0.1
CC1(O)CN(Cc2ccc(N3CC(c4c(Cl)cccc4Cl)C3)cn2)C1 [Compound 66, 1-((5-(3-(2,6-dichlorophenyl)azetidin-1-yl)pyridin-2-yl)methyl)-3-methylazetidin-3-ol]	0.1 to 1
CC1(O)CN(Cc2ccc(N3CC(c4c(Cl)cccc4Cl)C3)c(F)c2)C1 [Compound 67, 1-(4-(3-(2,6-dichlorophenyl)azetidin-1-yl)-3-fluorobenzyl)-3-methylazetidin-3-ol]	0.01 to 0.1
